Where “and” joins values, the source holds several entries; their conditions need not be identical. Equal values may be shown once. No end group written: not given here.
Assays:
human distal colon = test system: human distal colon
Procedure: Human distal colon strips obtained at bowel resection were suspended at 1 g passive isometric force and contracted with substance P (30 μM) to maintain a steady level of active tension.

[1] = test system: pig tracheal muscle strips; conditions: contracted to approximately 30% maximal with carbachol
Procedure: Pig tracheal muscle strips of approximately 2 mm×2 mm in size and with mucosa were prepared by dissecting away overlying cartilage. Strips were suspended in Krebs solution under 1 g passive tension, and contracted to approximately 30% maximal contraction with carbachol (40 μM).

monkey small bronchi = test system: monkey small bronchi
Excerpt: The experimental details are similar to those for the mouse isolated bronchi. Briefly, approximately 2 mm long rings of small bronchi were mounted on wire hooks. In each trace, half log concentrations are not depicted for clarity.

[2] = test system: human bronchial epithelium; conditions: after amiloride
Procedure: Human airways were obtained from discarded sections of lungs of patients undergoing lobectomy operations at the Royal Melbourne Hospital, Melbourne, Australia usually for lung cancer. The dissection and set up were as described above for the mouse trachea.
(§1) After an equilibration time of 30 min, compounds for testing and drugs to elucidate the mechanism of any changes in Isc to the test compounds were added to either side of the tracheal epithelium (ie to either bath). Compounds used for increasing Isc were PGE2, adenosine 5′-triphosphate (ATP), uridine 5′-triphosphate (UTP) and the PAR1-, PAR2- and PAR4-activating peptides, SFLLRN (SEQ ID NO:1) and SLIGRL (SEQ ID NO:2) and GYPGQY (SEQ ID NO:6), respectively. These stimulants were added cumulatively with controls for any time-dependent tachyphylaxis.

[3] = test system: mice challenged with bacterial lipopolysaccharide; conditions: 2 mg/kg or 20 mg/kg intranasal before LPS
Procedure: Mice were challenged with bacterial lipopolysaccharide (LPS; 10 μg/mouse) via intranasal administration under light halothane aneasthesia.
Three hours after receiving LPS, the mice were killed via an intraperitoneal injection of sodium pentabarbitone and the lungs were canulated and lavaged with 4×0.5 ml washes of phosphate buffered saline. The total number of cells retrieved by this procedure was determined with a haemocytometer. Differential counts of individual cell types were performed on cytospin preparations of the lavage fluid, stained with the conventional May-Grunwald/Giemsa blood stain. The total number of neutrophils in each sample was then calculated from the proportion of neutrophils in the cytospin preparations, as a proportion of the total number of cells retrieved.

rat bronchioles = test system: rat bronchioles
Excerpt: The right and left main bronchi and their first order branches of specific pathogenfree (SPF) Balb/c mice (15–20 g; either sex), Hartley tricolour guinea-pigs (300–400 g; male) and Sprague-Dawley rats (200–350 g; either sex), all killed by either cervical dislocation or overdosed (i.p.) with sodium pentobarbitone, were cleared of surrounding connective tissue, nerves and blood vessels under a dissecting microscope and placed in cold, carbogenated (95% v/v O2,5% v/v CO2) Krebs solution (Kemp and Cocks, 1997). Human airway preparations (0.5–1 mm in external diameter) were dissected from lungs of cancer patients undergoing thoracotomy at The Royal Melbourne Hospital, Melbourne, Australia. The epithelium was removed from some bronchi either by mechanical abrasion of the luminal surface (guinea-pig) or by brief, gentle intraliminal flushing of the airways with Krebs containing 0.1% v/v Triton-X100 (mouse and rat). In each case, removal of the epithelium was verified histologically in 8 μm formalin-fixed, paraffin sections stained with haemotoxylin and eosin. Ring segments (approximately 2 mm long) of bronchi and bronchioles were mounted in Krebs (37° C.) on stainless steel wires (40 μm) in dual channel (5 ml) Mulvany-Halpern myographs (JP Trading, Aarhus, Denmark) to record changes in isometric force (Kemp and Cocks, 1997). After equilibration at a passive force between 0.2 g and 0.3 g, tissues were contracted to their maximum levels of active force (Fm.),) with acetylcholine (30 μM), thoroughly washed with Krebs and allowed to return to baseline. Various drugs or their vehicles were then added and 30 min later all tissues were contracted to approximately 40% Fmax with titrated concentrations of carbachol (10–500 nM). The L-type voltage-operated Ca^2+ channel inhibitor, nifedipine (0.3 μM) was added to all mouse and rat tissues after obtaining Fmax to control characteristic phasic contractile activity with carbachol.
All cumulative responses (relaxations and contractions) were normalised as percentages of the initial level of active force to carbachol. Results are presented as mean±s.e mean and pEC50 (sensitivity) values were calculated by fitting concentration-response curves to a four parameter logistic function (Kemp and Cocks, 1997) using Graphpad Prism (version 2.0). Statistical comparison of mean pEC50 and maximum response (Rmax) values were compared by two-tailed unpaired Student's t-tests or one way analysis of variance (ANOVA) with Tukey-Kramer's t-tests for multiple comparisons. P<0.05 was accepted as significant. Unless specified, all averaged data are from n>5 experiments.

mouse trachea = test system: mouse trachea
Excerpt: Mice were killed by a lethal overdose of sodium pentobarbitone and the tracheae rapidly excised. The trachea was opened longitudinally through the ventral cartilage rings to make a fiat sheet. Each sheet of trachea was mounted between two perspex chambers so that the mucosal (luminal) and submucosal and bathed with warmed, oxygenated Krebs' solution, independently on each side. Electrodes in the chambers allowed recordings of transepithelial potential difference using an amplifier. The tissue was voltage clamped at 0 mV by passing a current from the amplifier via another set of electrodes in the chambers. The amount of current required to maintain voltage at 0 mV is defined as the short circuit current (Isc) and is conventionally used as a measure of all ionic fluxes across the preparation.
as §1

anaesthetised rat = test system: anaesthetised rat
Procedure: Male Sprague-Dawley rats (8 weeks) were anaesthetised (xylazine 10 mg/kg, ketamine 100 mg/kg and 50 mg/kg each 30 min thereafter, i.p.) and cannulae were placed in the trachea, carotid artery and jugular vein. Spontaneous breathing was stopped by an intravenous injection of pancuronium bromide (0.4 mg/kg and 0.2 mg/kg each 30 min thereafter) and rats were ventilated (tidal volume 8 ml/kg at 90 breaths/min, SAR-830 ventilator, CWE Inc., Ardmore, USA). Breath-to-breath measurement of airway resistance (RD and dynamic compliance (Cdyn) were calculated from flow and transpulmonary pressure recordings (PMS800, Mumed, London, UK). Flow was measured over the tracheal cannula (Fleisch pneumotachograph, Lausanne, Switzerland) and transpulmonary pressure was measured with a differential pressure transducer, one end being connected to the outlet of the tracheal cannula, the other to an air-filled cannula inserted in the oesophagus. A rectal probe was used to monitor body temperature. Serotonin (5-HT; 0.3 mg/kg i.v.) was administered as a bolus dose at 5 min intervals until reproducible changes in RL and Cdyn were obtained. Prior to each 5-HT challenge, lungs were hyperinflated once (by delivering twice the tidal volume) to prevent and reverse atelecasis. […]

In the case of SFLLRN [SFLLRN—NH2], the “response of human distal colon” value (human distal colon) is reported as “relaxed in an apparently apaminin sensitive manner”, the “relaxation of pig tracheal strip” value [1] is reported as “slow onset, near maximal relaxation of the tissue comparable in extent to that induced by isoprenaline” and the “effect on monkey small bronchi” value (monkey small bronchi) is reported as “smooth muscle relaxing effects”. For the same substance, the “change in Isc” value [2] was “increases in Ise”.
With SLIGRL-NH2 [SLIGRL—NH2] the “effect on LPS-induced neutrophil infiltration into the lungs” value [3] was “dose-dependent inhibition of the increase of neutrophil infiltration into the lungs”, the Rmax (rat bronchioles) was 67±5% and the pEC50 (rat bronchioles) was 5.1±0.1 and 5.1±0.01. For the same substance, the “increase in Isc in presence of indomethacin” value (mouse trachea; cyclooxygenase inhibitor indomethacin) was “unaffected”, the “change in Isc” value (mouse trachea; luminally applied) was “rapid initial rise in Isc usually followed by some degree of recovery until a steady plateau was reached” and the “inhibition of 5-HT-induced changes in airway resistance (RL) and dynamic compliance (Cdyn)” value (anaesthetised rat; 30 sec aerosol of 0.1 mg/ml solution) was 50–70%. The “duration of inhibition of bronchoconstriction to 5-HT” value (anaesthetised rat; aerosol of 1 mg/ml) was “at least 45 min” and the “inhibition of bronchoconstriction to 5-HT” value (anaesthetised rat; aerosol of 1 mg/ml) was “complete inhibition”.
